In brackets after ≈: the same amount, converted by molar mass. Several values for one entry are separate records, joined by “and”; a condition that tells them apart may be missing. Equal entries are not always repeated.
Legend:
physchem [1] = experiment: physchem
isoelectric point (pI) = assay type: physicochemical
glutathione levels = experiment: utilization of GGC in mice: glutathione levels; assay type: in vivo; settings: preliminary studies
Source text: The final form of GGC, whether it be in the reduced state as γ-glutamylcysteine or in the disulphide form as bis-γ-glutamylcystine, is dependent on the final application of the dipeptide. […] The oxidised form bis-γ-glutamylcystine is more likely to be suitable for application as a nutraceutical supplement as no special precautions to prevent the oxidation of the sulphydryl, would be required, whereas application in the treatment of poisoning or as an antioxidant in food or cosmetics would require the reducing power of the sulphydryl of γ-glutamylcysteine. Whatever the desired form, both are relatively easily interconverted by reduction which can be achieved either chemically (Jocelyn, P. C., Chemical reduction of disulfides. Methods in Enzymology, 1987. 143: p. 246-56), electrochemically (Genders, J. D., N. L. Weinberg, and D. J. Mazur, High yield methods for electrochemical preparation of cysteine and analogues. 1988, U.S. Pat. No. 5,106,463. The Electrosynthesis Company, Inc.) or oxidized to the disulphide form simply by exposing a solution to air (oxygen) with a trace amount of copper or iron salt added to catalyse the reaction.

[2] = stability on removal of water by evaporation; assay type: physicochemical; settings: temperatures above 40° C.
Description: Example 13 describes purification of GGC from a mixture comprising GGC and 2-mercaptoethanol, with subsequent freeze-drying. However, it is not expected that freeze drying would be an economic option at industrial scale. Removal of water by conventional evaporation at temperatures above 40° C. results in degradation of the product. However, a process of concentration by nanofiltration is expected to be most suitable at industrial scale as it is both low temperature and a cost effective method for water removal. […] After the removal of the majority of water by nanofiltration and a pH adjustment to the pH of the isoelectric point (GGC=pH 2.8) the addition of an antisolvent such as ethanol or acetone can be added to initiate spontaneous crystallization. The final product can be collected by filtration and dried under reduced pressure.

physchem [3] = settings: pH 9.1, aqueous with cosolvent or surfactant or cyclodextrin, thermodynamic from solid

COC(=O)[C@@H](N)CSSC[C@H](N)C(=O)OC.Cl.Cl [CDME, cystine dimethyl ester dihydrochloride]
solubility (physchem [1]): > 20000 µg/mL

N[C@@H](CSSCCO)C(=O)O [Cys-Merc, cysteine-mercaptoethanol mixed disulphide]
isoelectric point (pI) (isoelectric point (pI)): 5.2 and 5.3 | aqueous solubility (aqueous solubility): ~20000 µg/mL (≈ 101 mM)

CCOC(=O)CC[C@H](N)C(=O)O [GEE, glutamic acid γ-ethyl ester]
isoelectric point (pI) (isoelectric point (pI)): 5.8

N[C@@H](CCC(=O)N[C@@H](CS)C(=O)O)C(=O)O [GGC, γ-Glutamylcysteine]
isoelectric point (pI) (isoelectric point (pI)): 2.8 | glutathione levels after administration (glutathione levels): significantly increase glutathione levels | stability on conventional evaporation of water [2]: degradation

N[C@@H](CCC(=O)NC(CSSCCO)C(=O)O)C(=O)O (stereo partly shown) [GGC-Merc, γ-glutamylcysteine-mercaptoethanol disulphide]
isoelectric point (pI) (isoelectric point (pI)): 3.0

N[C@@H](CCC(=O)Nc1ccc([N+](=O)[O-])cc1)C(=O)O [GPNA, L-γ-glutamyl-p-nitroanilide]
solubility limit (aqueous solubility; pH 8.5 in 100 mM phosphate buffer): 8.4 mM (≈ 2240 µg/mL)

CC(=O)NCSC[C@H](N)C(=O)O [S-acetamidomethylcysteine]
solubility (aqueous solubility; water): 2000 mM

N[C@@H](CCC(=O)N[C@@H](CSSC[C@H](NC(=O)CC[C@H](N)C(=O)O)C(=O)O)C(=O)O)C(=O)O [bis-γ-glutamylcystine]
glutathione levels after administration (glutathione levels): significantly increase glutathione levels

N[C@@H](CSSC[C@H](N)C(=O)O)C(=O)O [cystine]
solubility (physchem [3]; 50% DMF in diethanolamine (DEA) buffer): ~30 mM | solubility (physchem [3]; 50% DMF in water): ~9000 µg/mL | solubility (aqueous solubility; aqueous solution, pH 3, aqueous buffer): 100 µg/mL | solubility (aqueous solubility; phosphate buffer, pH 8.5, aqueous buffer): 16.6 mM | solubility (aqueous solubility; water, 37 °C, pH 9.1, water): ~5000 µg/mL
